For data set [1] the following is noted: cited from earlier work.
In data set [2] the test system is CD-1 mice. As to conditions: chronic exposure, 10 mg/kg/day for 30 days; cited from earlier work.
In a further data set the test system is C57BL/6J mice. Description: Locomotor activity studies in mice. The data set is classed as in vivo, mouse. Particulars: for dose giving maximal locomotor effect (Emax): i.p.
Data set [3] can be described thus: Pharmacokinetic studies: drug concentrations in mouse blood and brain tissue. As to conditions: for half-life / Cmax: C57BL/6, mouse, ip.
The next data set concerns Sprague-Dawley rats. Set-up: method as in PMID 27265782. As to conditions: i.p.; cited from earlier work.
The target in the next data set is T1, VMAT2 (Rattus norvegicus, UniProt Q01827).
T1 construct: Synaptic vesicles from rat cerebrum were isolated as described previously; from tissue; host or cells: rat cerebrum synaptic vesicles
Description: Vesicular uptake of [3H]DA, [3H]NE and [3H]5-HT in rat brain synaptic vesicles. The data set is classed as biochemical.

In the next data set the target is T2, SERT (Rattus norvegicus, UniProt P31652).
T2 construct: Synaptosomes from rat cerebrum were isolated as described by Bogen et al; from tissue; host or cells: rat cerebrum synaptosomes
The experiment in a line: Synaptosomal uptake of [3H]5-HT in rat brain synaptosomes. The data set is classed as biochemical. Particulars: IC50 Synaptosomes [3H]5-HT Uptake via SERT.

In the next data set the target is T3, NET (Rattus norvegicus, UniProt Q63380).
T3 construct: Synaptosomes from rat cerebrum were isolated as described by Bogen et al; from tissue; host or cells: rat cerebrum synaptosomes
The experiment in a line: Synaptosomal uptake of [3H]NE in rat brain synaptosomes. It counts as biochemical.

Another data set addresses T4, DAT (Rattus norvegicus, UniProt P23977).
T4 construct: Synaptosomes from rat cerebrum were isolated as described by Bogen et al; from tissue; host or cells: rat cerebrum synaptosomes
Description: Synaptosomal uptake of [3H]DA in rat brain synaptosomes. It counts as biochemical.

For data set [4], the system named is CD-1 mice. Set-up: method as in PMID 32356113, PMID 33770233. Particulars: i.p.; cited from earlier work.
For data set [5], the system named is DA, 3-MT, DOPAC, 5-HT and 5-HIAA in dorsal striatum and nucleus accumbens. The experiment in a line: Neurotransmitter and metabolite concentrations in post-mortem mouse brain tissue. Particulars: 20 min after 3.75 mg/kg i.p. The data set is classed as in vivo.
For the next data set, the system named is vesicular DA uptake. Further details: method as in PMID 16835371. As to conditions: cited from earlier work.
The mark [6] stands for this setting: mouse, single i.p. injection of 3.75 mg/kg methamphetamine.

“And” between values parts separate entries of the source, which are not always exact repeats. Identical values can stand only once.

T4 sequence (P23977 whole entry): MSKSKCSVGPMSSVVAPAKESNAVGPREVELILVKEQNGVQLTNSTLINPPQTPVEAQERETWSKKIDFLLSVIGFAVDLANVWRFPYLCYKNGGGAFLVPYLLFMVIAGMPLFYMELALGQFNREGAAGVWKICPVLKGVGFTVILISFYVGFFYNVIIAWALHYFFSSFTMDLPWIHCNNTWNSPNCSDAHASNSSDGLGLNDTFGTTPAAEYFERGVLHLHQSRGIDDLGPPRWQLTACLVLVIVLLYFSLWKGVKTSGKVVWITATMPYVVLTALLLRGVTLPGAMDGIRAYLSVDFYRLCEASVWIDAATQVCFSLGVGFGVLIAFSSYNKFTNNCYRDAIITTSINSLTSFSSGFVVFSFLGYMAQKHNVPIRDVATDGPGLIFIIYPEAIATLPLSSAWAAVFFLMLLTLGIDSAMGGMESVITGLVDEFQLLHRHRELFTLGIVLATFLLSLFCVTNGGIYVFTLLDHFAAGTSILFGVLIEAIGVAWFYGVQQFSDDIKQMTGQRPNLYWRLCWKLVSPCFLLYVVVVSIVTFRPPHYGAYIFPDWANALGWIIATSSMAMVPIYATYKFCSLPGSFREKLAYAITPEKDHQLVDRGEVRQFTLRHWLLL
T1 sequence (Q01827 whole entry): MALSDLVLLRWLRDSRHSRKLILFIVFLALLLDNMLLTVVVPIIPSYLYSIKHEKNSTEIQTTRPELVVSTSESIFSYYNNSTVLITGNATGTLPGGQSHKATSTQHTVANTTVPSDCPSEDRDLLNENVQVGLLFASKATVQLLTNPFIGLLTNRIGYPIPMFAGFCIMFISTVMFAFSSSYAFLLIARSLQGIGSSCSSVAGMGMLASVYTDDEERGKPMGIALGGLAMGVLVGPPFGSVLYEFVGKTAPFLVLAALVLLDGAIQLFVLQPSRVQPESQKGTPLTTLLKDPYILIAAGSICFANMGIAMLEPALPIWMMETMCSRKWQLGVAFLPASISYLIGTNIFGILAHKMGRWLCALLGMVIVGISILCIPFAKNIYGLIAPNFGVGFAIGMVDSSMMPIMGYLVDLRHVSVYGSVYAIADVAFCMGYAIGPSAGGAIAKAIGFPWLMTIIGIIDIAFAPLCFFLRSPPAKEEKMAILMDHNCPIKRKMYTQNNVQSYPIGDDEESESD
T3 sequence (Q63380 1-617): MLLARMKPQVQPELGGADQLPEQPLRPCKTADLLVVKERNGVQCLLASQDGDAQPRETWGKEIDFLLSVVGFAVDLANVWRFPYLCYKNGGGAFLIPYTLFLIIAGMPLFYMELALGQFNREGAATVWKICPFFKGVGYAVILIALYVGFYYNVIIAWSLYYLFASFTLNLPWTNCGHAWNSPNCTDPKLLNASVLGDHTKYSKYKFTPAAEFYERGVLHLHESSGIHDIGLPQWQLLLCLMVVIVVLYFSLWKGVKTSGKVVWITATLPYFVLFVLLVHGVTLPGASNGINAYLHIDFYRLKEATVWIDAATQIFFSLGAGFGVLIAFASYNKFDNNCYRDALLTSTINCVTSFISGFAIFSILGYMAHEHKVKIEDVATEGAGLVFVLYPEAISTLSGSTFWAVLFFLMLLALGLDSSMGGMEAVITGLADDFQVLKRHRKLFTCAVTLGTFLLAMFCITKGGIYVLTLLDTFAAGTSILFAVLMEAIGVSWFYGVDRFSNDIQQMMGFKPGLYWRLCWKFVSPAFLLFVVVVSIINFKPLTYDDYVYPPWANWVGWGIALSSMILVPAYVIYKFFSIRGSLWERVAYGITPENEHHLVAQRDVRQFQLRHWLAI
T2 sequence (P31652 whole entry): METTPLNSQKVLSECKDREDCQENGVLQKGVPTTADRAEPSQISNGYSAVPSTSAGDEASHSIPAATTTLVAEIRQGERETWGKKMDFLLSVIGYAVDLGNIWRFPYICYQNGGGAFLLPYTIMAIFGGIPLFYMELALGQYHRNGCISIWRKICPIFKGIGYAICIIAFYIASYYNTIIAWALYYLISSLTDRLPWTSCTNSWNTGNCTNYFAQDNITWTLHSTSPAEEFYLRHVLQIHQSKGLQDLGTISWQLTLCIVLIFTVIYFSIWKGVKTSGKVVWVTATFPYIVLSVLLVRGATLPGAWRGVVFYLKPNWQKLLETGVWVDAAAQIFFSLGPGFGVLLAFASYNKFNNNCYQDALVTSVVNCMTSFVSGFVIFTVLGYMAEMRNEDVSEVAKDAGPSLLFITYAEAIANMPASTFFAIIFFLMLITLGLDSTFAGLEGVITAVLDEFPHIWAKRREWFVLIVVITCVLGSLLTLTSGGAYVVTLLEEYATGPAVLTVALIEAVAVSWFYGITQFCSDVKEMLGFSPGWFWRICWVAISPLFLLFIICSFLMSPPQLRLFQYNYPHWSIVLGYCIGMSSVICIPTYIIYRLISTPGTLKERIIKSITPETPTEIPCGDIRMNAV

For the molecule `CNC(C)Cc1cccs1` (stereo not shown) [methiopropamine, 1-(thiophen-2-yl)-2-methylaminopropane], the “peripheral postmortem blood concentration” value in data set [1] (fatal case of isolated methiopropamine use) is on record as 38 µg/mL. The blood concentration in data set [1] (fatal intoxication case) is given as 245 µM. Further, the sudden deaths is listed as 70 % deaths in the data set with CD-1 mice [2] and “did not observe any sudden deaths” in the data set with C57BL/6J mice (mouse, in vivo). For the same molecule, the “peak effect (Emax), maximum run distance per 5 min interval” value in the data set on C57BL/6J mice ([…] i.p., C57BL/6 mice) worked out at 2037 ± 127 cm/5 min. Moreover, the “dose giving maximal locomotor effect (Emax)” value in the data set with C57BL/6J mice (C57BL/6 mice) is recorded as 12.5 mg/kg. Further, the “brain:blood ratios, comparison of the two drugs” value in data set [3] (5, 30 and 60 min after injection, […] methiopropamine vs 3.75 mg/kg methamphetamine, p > 0.05) is reported as “no significant differences”. Besides, the half-life (usually the time needed for the level to fall by half in the phase considered) was approximately 30 min in data set [3] (blood and brain, […]); approximately 35 min in data set [3] (brain, […]); approximately 31 min in data set [3] (whole blood, […]). The “dose with significant increase in locomotor activity” value in the data set with Sprague-Dawley rats is listed as 5 mg/kg; with CD-1 mice [4] it was 10 mg/kg. Further, the IC50 – broadly, the concentration that gives 50% inhibition – is 48.9 ± 5.02 µM against VMAT2 (IC50 Synaptic Vesicles [3H]5-HT Uptake via VMAT2, rat brain synaptic vesicles); 33.8 µM on VMAT2 (IC50 Synaptic Vesicles [3H]DA Uptake via VMAT2, rat brain synaptic vesicles); 47 ± 8.01 µM against VMAT2 (IC50 Synaptic Vesicles [3H]NE Uptake via VMAT2, rat brain synaptic vesicles); 34 to 49 µM and > 25 µM and 10 to 50 µM against VMAT2 (IC50 vesicular uptake of DA, NE and 5-HT (span over the three substrates), rat brain synaptic vesicles); 25.1 ± 2.91 µM at SERT; 0.47 ± 0.06 µM at NET. For the same molecule, the IC50 on DAT is 0.74 ± 0.09 µM. Besides, the “potency, fold weaker compared with methamphetamine” value on DAT (DA, NE and 5-HT transporters) was “approximately 5 ×”.
Take `CN[C@@H](C)Cc1ccccc1` [methamphetamine]: the 3-MT concentration was 3.6 ± 0.7 nmol/g in data set [5] (Dorsal Striatum) and 3.5 ± 1.0 nmol/g in data set [5] (Nucleus Accumbens). Besides, the 5-HT concentration in data set [5] (Dorsal Striatum) is 2.0 ± 0.3 nmol/g; in [5] (Nucleus Accumbens) it was 6.1 ± 0.8 nmol/g. For the same molecule, the DA concentration in data set [5] (Dorsal Striatum) is given as 107.4 ± 21.1 nmol/g; in [5] (Nucleus Accumbens) it was 82.2 ± 10.5 nmol/g. Moreover, the “Emax, maximum run distance per 5 min interval” value in the data set with C57BL/6J mice (3.75 mg/kg i.p., C57BL/6 mice) came to 1312 ± 126 cm. Also, in the data set with C57BL/6J mice (3.75 mg/kg i.p., C57BL/6 mice), the “maximum total locomotor activity (total run distance during 240 min session)” value is 24,401 ± 2043 cm. In the data set on C57BL/6J mice (C57BL/6 mice), the “dose giving maximal locomotor effect (Emax)” value was found to be 3.75 mg/kg. Moreover, the half-life in data set [3] (brain, 3.75 mg/kg) was approximately 45 min; in data set [3] (whole blood, 3.75 mg/kg), approximately 36 min. The Cmax (as a rule, the peak of the concentration-time curve) was determined as 4110 ± 150 ng/g in [3] (brain, 3.75 mg/kg, Cmax in brain, mouse, single i.p. injection of 3.75 mg/kg methamphetamine) and 910 ± 80 ng/mL in data set [3] (whole blood, 3.75 mg/kg, Cmax in blood, mouse, single i.p. injection of 3.75 mg/kg methamphetamine). The “time of Cmax in blood” value in data set [3] (setting [6]) came to 5 min. Further, the “time of Cmax in brain” value in [3] (setting [6]) was 20 min. Also, the IC50 was 9.1 µM with vesicular DA uptake and 0.14 ± 0.01 µM against DAT.

These data come from paper PMC8585037 (International Journal of Molecular Sciences, 2021).
